The molecules below were run against T1, MAGL (Homo sapiens, UniProt Q99685) (assay: 2-AG assay (MAGL inhibitory activity, hydrolysis of 2-arachidonoylglycerol to arachidonic acid followed by mass spectrometry)). Conditions: 8 μM 2-arachidonoylglycerol, 15 min pre-incubation, 30 min incubation at RT, RapidFire MS readout.
T1 sequence (Q99685 1-303): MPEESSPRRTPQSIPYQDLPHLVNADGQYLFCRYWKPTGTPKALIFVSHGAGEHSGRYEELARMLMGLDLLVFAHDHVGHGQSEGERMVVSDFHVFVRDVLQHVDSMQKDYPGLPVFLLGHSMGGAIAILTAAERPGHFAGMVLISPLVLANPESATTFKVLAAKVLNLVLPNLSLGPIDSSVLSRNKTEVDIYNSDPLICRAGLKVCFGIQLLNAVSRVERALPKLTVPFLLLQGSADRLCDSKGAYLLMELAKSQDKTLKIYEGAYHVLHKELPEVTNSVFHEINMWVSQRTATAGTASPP
Assay type: biochemical
Summary of the method: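 Human MAGL ([…] final) pre-incubated 15 min at RT with compound in 50 mM TRIS, 1 mM EDTA, 0.01% Tween-20, 2.5% DMSO; 8 μM 2-AG then added for 30 min at RT. Acetonitrile quench with d8-arachidonic acid; arachidonic acid measured by RapidFire SPE–MS/MS, activity from arachidonic acid/d8 ratio.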

| SMILES | IC50 [nM] |
| --- | --- |
| CC(C)(C)c1nc(-c2ccc(C(=O)N3CC4(CC(n5ccc(C6CC6)n5)C4)C3)cc2)no1 [Example 171, [4-(5-tert-butyl-1,2,4-oxadiazol-3-yl)phenyl]-[6-(3-cyclopropylpyrazol-1-yl)-2-azaspiro[3.3]heptan-2-yl]methanone] | 96.4 |
| O=C(N1CC(NCc2ccc(C(F)(F)F)cc2F)C1)N1CC2(CC(n3cnc(C4CC4)n3)C2)C1 [Example 262, [6-(3-cyclopropyl-1,2,4-triazol-1-yl)-2-azaspiro[3.3]heptan-2-yl]-[3-[[2-fluoro-4-(trifluoromethyl)phenyl]methylamino]azetidin-1-yl]methanone] | 25.2 |
| O=C(N1CC(Oc2ccc(C(F)(F)F)cc2)C1)N1CC2(CC(n3cnc(C4CC4)n3)C2)C1 [Example 202, [6-(3-cyclopropyl-1,2,4-triazol-1-yl)-2-azaspiro[3.3]heptan-2-yl]-[3-[4-(trifluoromethyl)phenoxy]azetidin-1-yl]methanone] | 0.7 |
| O=C(O)c1ccccc1S(=O)(=O)N1CC2(CN(C(=O)N3CC4(CC(n5cnc(C6CC6)n5)C4)C3)C2)C1 [Example 338, 2-[[6-[6-(3-cyclopropyl-1,2,4-triazol-1-yl)-2-azaspiro[3.3]heptane-2-carbonyl]-2,6-diazaspiro[3.3]heptan-2-yl]sulfonyl]benzoic acid] | 2150 |
| COc1ccccc1S(=O)(=O)N1CC2(CN(C(=O)N3CC4(CC(n5cnc(C6CC6)n5)C4)C3)C2)C1 [Example 251, [6-(3-cyclopropyl-1,2,4-triazol-1-yl)-2-azaspiro[3.3]heptan-2-yl]-[2-(2-methoxyphenyl)sulfonyl-2,6-diazaspiro[3.3]heptan-6-yl]methanone] | 15.5 |
| O=C(N1CC2(CC(n3cnc(C4(O)CC4)n3)C2)C1)N1CC2(CC[C@@H](Cc3ncc(F)cc3F)C2)C1 (stereo in doubt) [Example 352, [6-[3-(1-hydroxycyclopropyl)-1,2,4-triazol-1-yl]-2-azaspiro[3.3]heptan-2-yl]-[(6R)-6-[(3,5-difluoro-2-pyridyl)methyl]-2-azaspiro[3.4]octan-2-yl]methanone] | 4.36 |
| O=C(N1CCC(Oc2cccc(F)c2)CC1)N1CC2(CC(n3cnc(C4CC4)n3)C2)C1 [Example 506, [6-(3-cyclopropyl-1,2,4-triazol-1-yl)-2-azaspiro[3.3]heptan-2-yl]-[4-(3-fluorophenoxy)-1-piperidyl]methanone] | 75.6 |
| O=C(N1CC2(CC(Cc3ccc4[nH]ncc4n3)C2)C1)N1CC2(CC(n3cnc(C4CC4)n3)C2)C1 [Example 357, [6-(3-cyclopropyl-1,2,4-triazol-1-yl)-2-azaspiro[3.3]heptan-2-yl]-[6-(1H-pyrazolo[4,3-b]pyridin-5-ylmethyl)-2-azaspiro[3.3]heptan-2-yl]methanone] | 2.01 |
| CC1(COc2ncc(C(=O)N3CC4(CC(n5cnc(C6CC6)n5)C4)C3)cc2F)CC1 [Example 29, [6-(3-cyclopropyl-1,2,4-triazol-1-yl)-2-azaspiro[3.3]heptan-2-yl]-[5-fluoro-6-[(1-methylcyclopropyl)methoxy]-3-pyridyl]methanone] | 52.2 |
| Cc1ccc(COC2CN(C(=O)N3CC4(CC(n5cnc(C6CC6)c5)C4)C3)C2)cc1C(F)(F)F [Example 106, [6-(4-cyclopropylimidazol-1-yl)-2-azaspiro[3.3]heptan-2-yl]-[3-[[4-methyl-3-(trifluoromethyl)phenyl]methoxy]azetidin-1-yl]methanone] | 4.1 |
| CC(C)(C)c1nc(-c2ccc(C(=O)N3CC4(CC(n5cc6c(n5)CCOC6)C4)C3)cc2)no1 [Example 14, [4-(5-tert-butyl-1,2,4-oxadiazol-3-yl)phenyl]-[6-(6,7-dihydro-4H-pyrano[4,3-c]pyrazol-2-yl)-2-azaspiro[3.3]heptan-2-yl]methanone] | 197 |
| O=C(N1CC2(CC(n3cnc(C4CC4)n3)C2)C1)N1CC2(C1)CN(S(=O)(=O)c1ccc(F)c(C(F)(F)F)c1)C2 [Example 236, [6-(3-cyclopropyl-1,2,4-triazol-1-yl)-2-azaspiro[3.3]heptan-2-yl]-[2-[4-fluoro-3-(trifluoromethyl)phenyl]sulfonyl-2,6-diazaspiro[3.3]heptan-6-yl]methanone] | 6.2 |
| CC1(Cc2nnc(-c3ccc(C4CN(C(=O)N5CC6(CC(n7cnc(C8(O)CC8)n7)C6)C5)C4)cc3)[nH]2)CC1 [Example 394, [6-[3-(1-hydroxycyclopropyl)-1,2,4-triazol-1-yl]-2-azaspiro[3.3]heptan-2-yl]-[3-[4-[5-[(1-methylcyclopropyl)methyl]-4H-1,2,4-triazol-3-yl]phenyl]azetidin-1-yl]methanone] | 43.7 |
| CS(=N)(=O)c1cccc(CC2CC3(C2)CN(C(=O)N2CC4(CC(n5cnc(C(F)(F)F)n5)C4)C2)C3)c1 (stereo not shown) [Example 431, [6-[[3-(methylsulfonimidoyl)phenyl]methyl]-2-azaspiro[3.3]heptan-2-yl]-[6-[3-(trifluoromethyl)-1,2,4-triazol-1-yl]-2-azaspiro[3.3]heptan-2-yl]methanone] | 10.3 |
| O=C(N1CC2(CC(Cc3ccc(F)cn3)C2)C1)N1CC2(CC(n3cnc(C4(O)CC4)n3)C2)C1 [Example 390, [6-[(5-fluoro-2-pyridyl)methyl]-2-azaspiro[3.3]heptan-2-yl]-[6-[3-(1-hydroxycyclopropyl)-1,2,4-triazol-1-yl]-2-azaspiro[3.3]heptan-2-yl]methanone] | 30.1 |
| O=C(N1CC2(CC(n3cnc(C4CC4)n3)C2)C1)N1CC2(C1)CN(S(=O)(=O)c1cccc(Cl)n1)C2 [Example 286, [2-[(6-chloro-2-pyridyl)sulfonyl]-2,6-diazaspiro[3.3]heptan-6-yl]-[6-(3-cyclopropyl-1,2,4-triazol-1-yl)-2-azaspiro[3.3]heptan-2-yl]methanone] | 58.6 |
| O=C(N1CC(OCc2ccc(S(F)(F)(F)(F)F)cc2F)C1)N1CC2(CC(n3cnc(C4CC4)n3)C2)C1 [Example 49] | 0.3 |
| O=C(N1CC2(CC(n3cnc(C4CC4)n3)C2)C1)N1CC2(C1)CN(S(=O)(=O)c1cncc(C(F)(F)F)c1)C2 [Example 268, [6-(3-cyclopropyl-1,2,4-triazol-1-yl)-2-azaspiro[3.3]heptan-2-yl]-[2-[[5-(trifluoromethyl)-3-pyridyl]sulfonyl]-2,6-diazaspiro[3.3]heptan-6-yl]methanone] | 32.1 |
| CC(C)(C)c1ccc(C2CN(C(=O)N3CC4(CC(n5cnc(C6CC6)n5)C4)C3)C2)cc1 [Example 44, [3-(4-tert-butylphenyl)azetidin-1-yl]-[6-(3-cyclopropyl-1,2,4-triazol-1-yl)-2-azaspiro[3.3]heptan-2-yl]methanone] | 0.2 |
| O=C(N1CC(OCc2ccc(F)cc2Cl)C1)N1CC2(CC(c3cncc(F)c3)C2)C1 [Example 513, [3-[(2-chloro-4-fluoro-phenyl)methoxy]azetidin-1-yl]-[6-(5-fluoro-3-pyridyl)-2-azaspiro[3.3]heptan-2-yl]methanone] | 2370 |
| O=C(N1CC(OCc2cc(F)cc(C(F)(F)F)c2)C1)N1CC2(CC(n3cnc(C4CC4)n3)C2)C1 [Example 76, (6-(3-cyclopropyl-1H-1,2,4-triazol-1-yl)-2-azaspiro[3.3]heptan-2-yl)(3-((3-fluoro-5-(trifluoromethyl)benzyl)oxy)azetidin-1-yl)methanone] | 2.2 |
| O=C(N1CC2(CC(Cc3cnc(C(F)(F)F)cn3)C2)C1)N1CC2(CC(n3cnc(C4CC4)n3)C2)C1 [Example 193, [6-(3-cyclopropyl-1,2,4-triazol-1-yl)-2-azaspiro[3.3]heptan-2-yl]-[6-[[5-(trifluoromethyl)pyrazin-2-yl]methyl]-2-azaspiro[3.3]heptan-2-yl]methanone] | 0.3 |
| O=C(N1CC2(CC(Cc3ccc(F)cc3F)C2)C1)N1CC2(CC(c3ccc(C(F)(F)F)nc3)C2)C1 [Example 358, [6-[(2,4-difluorophenyl)methyl]-2-azaspiro[3.3]heptan-2-yl]-[6-[6-(trifluoromethyl)-3-pyridyl]-2-azaspiro[3.3]heptan-2-yl]methanone] | 30.6 |
| CC(C)(Cc1cccc(OC2CN(C(=O)N3CC4(CC(n5cnc(C6CC6)n5)C4)C3)C2)c1)C(=O)O [Example 299, 3-[3-[1-[6-(3-cyclopropyl-1,2,4-triazol-1-yl)-2-azaspiro[3.3]heptane-2-carbonyl]azetidin-3-yl]oxyphenyl]-2,2-dimethyl-propanoic acid] | 95.7 |
| N#Cc1cc(O[C@H]2C[C@@H]3CN(C(=O)N4CC5(CC(n6cnc(C7CC7)n6)C5)C4)C[C@@H]3C2)ccc1C(F)(F)F [Example 118, 5-[rac-(3aS,6aR)-2-[6-(3-cyclopropyl-1,2,4-triazol-1-yl)-2-azaspiro[3.3]heptane-2-carbonyl]-3,3a,4,5,6,6a-hexahydro-1H-cyclopenta[c]pyrrol-5-yl]oxy]-2-(trifluoromethyl) benzonitrile] | 4.7 |
| O=C(N1CC2(CC(Cc3ccc(OC(F)(F)F)nc3)C2)C1)N1CC2(CC(n3cnc(C4(O)CC4)n3)C2)C1 [Example 381] | 0.44 |
| O=C(N1CC2(CC(Cc3ccc(F)cc3F)C2)C1)N1CC2(CC(c3ccc(F)cc3)C2)C1 [Example 343, [6-[(2,4-difluorophenyl)methyl]-2-azaspiro[3.3]heptan-2-yl]-[6-(4-fluorophenyl)-2-azaspiro[3.3]heptan-2-yl]methanone] | 491 |
| CC1(S(=O)(=O)N2CC3(CN(C(=O)N4CC5(CC(n6cnc(C7CC7)n6)C5)C4)C3)C2)CC1 [Example 288, [6-(3-cyclopropyl-1,2,4-triazol-1-yl)-2-azaspiro[3.3]heptan-2-yl]-[2-(1-methylcyclopropyl)sulfonyl-2,6-diazaspiro[3.3]heptan-6-yl]methanone] | 62 |
